{"source": "patent US5861417A", "about": "“Heterocyclic substituted pyrrolidine amide derivatives” (Hoechst Marion Roussel, Inc., priority 1997, dated 1999)", "key": {"[1]": {"test": "Metabolic Stability in Human Liver S9", "type": "in vitro ADME", "conditions": "human liver S9, 10 μM initial, 37° C.", "experimental": "(§1) Evaluation of metabolism in human and guinea pig liver\n(§2) One skilled in the art can determine the metabolic stability for the compounds of the present invention by determining the rate of disappearance of the test compound in vitro in liver extracts. Metabolic stability is inversely related to the rate of metabolism which can be evaluated by determining the rate of disappearance of the test compounds during the initial linear phase of this assay.\n(§3) This method is carried out using either S9 or S10 liver supernatant obtained from either guinea pig or human liver. Guinea pig liver S9 can be purchased from Vitro Technologies, Baltimore, Md. and human liver S9 can be purchased from IIAM, Eaton Pa. Both guinea pig and human S10 supernatant can be prepared as follows: Combine weighed liver (fresh or stored at -80° C. until use) and 1.15% aqueous potassium chloride solution (10-15 mL) and homogenize using a PCU Poltron from Kinematics of Switzerland or equivalent. Combine the homogenate with 1.15% aqueous potassium chloride solution, sufficient so that 3 mL of solution (total) is used per […] of liver, and mix. Store the above homogenate on ice at all times prior to use and at -80° C. for long term storage.\n(§4) Centrifuge a 20 mL volume of the homogenate at 12,500 rpm (10,000×gravity) at 3° C. After 20 minutes, remove the cover of white lipid protein, if present, and transfer the supernatant to a clean centrifuge tube. Centrifuge the supernatant at 12,500 (10,000×gravity) at 3° C. for 20 minutes before transfer to a clean storage vessel to give the S10 supernatant. Store the S10 supernatant on ice or at -80° C. for long term storage.\n(§5) Prepare a stock solution of each test compound in methanol, such that 0.1 mL of the stock solution when spiked into 16 mL of incubation mixture yields an initial concentration of 10 μM of the test compound. Using this method the methanol content of the final incubation mixture will not exceed 1%.\n(§6) Prepare the incubation mixture by combining in an incubation beaker S9 or S10 supernatant (4 mL); an aqueous solution containing 1.1 mM NADP, […] (4 units/2 mL)(0.32 mL); and an aqueous 0.1M dipotassium monohydrogen phosphate solution (7.58 mL). Incubate the test compound by adding 0.1 mL of the stock solution of test compound to an incubation mixture, placed in a shaking water bath at 37° C.\n(§7) To determine the rate of disappearance of test compounds in this assay, remove triplicate aliquots (0.5 mL) from the incubation beaker at 1, 3, 5, 10, 15, 30, and 60 minutes. Freeze all aliquots in a hexane/dry-ice slurry to instantly deactivate the enzymes. Store at -70° C. until assayed. The concentration of test compound in each aliquot is determined by HPLC after preparation and as compared to a standard concentration of test compound, such preparations and determinations are well known and appreciated in the art. The rate of disappearance can be determined from the slope of the initial linear phase of this assay by graphing the change in concentration of test compound vs. time.\n(§8) Calibration standards for Compound A were prepared as follows: dissolve 10 mg of Compound A (free base) in methanol (10 mL) to give a 1 mg/mL stock solution. Use acetonitrile to dilute 1 mL of stock solution to 10 mL to give a 100 μg/mL spiking standard and serially dilute the 100 μg/mL solution with acetonitrile to give spiking standards having concentrations of 50, 25, 10, 5, 2.5, and 1.0 μg/mL. Calibration standards having concentrations of 10,000; 5,000; 2,500; 1,000; 500; 250; and 100 ng/mL are prepared in duplicated by adding 20 μL of each spiking standards to 0.2 mL of control S9 supernatant. Blanks and samples each receive 20μL of acetonitrile. […]"}, "[2]": {"test": "Metabolic Stability in Guinea Pig Liver S9", "type": "in vitro ADME", "conditions": "guinea pig liver S9, 10 μM initial, 37° C.", "experimental": "as §1, §2, §3, §4, §5, §6, §7, §8"}}, "data": [{"smiles": "COc1cc(C(=O)N2CCC(CCN3CCC(C(N)=O)(c4ccccc4)CC3)(c3ccc(Cl)c(Cl)c3)C2)cc(OC)c1OC.Cl", "note": "(single isomer, unassigned; (+)) [Compound C, (+)-1-(2-(3-(3,4-dichloro-phenyl)-1-(3,4,5-trimethoxy-benzoyl)-pyrrolidin-3-yl)-ethyl)-4-phenyl-piperidine-4-carboxylic acid amide hydrochloride]", "values": [{"measurement": "concentration", "setting": "[1]; 1 min", "result": 6200, "unit": "ng/mL"}, {"measurement": "concentration", "setting": "[1]; 3 min", "result": 5600, "unit": "ng/mL"}, {"measurement": "concentration", "setting": "[1]; 5 min", "result": 5900, "unit": "ng/mL"}, {"measurement": "concentration", "setting": "[1]; 10 min", "result": 5200, "unit": "ng/mL"}, {"measurement": "concentration", "setting": "[1]; 15 min", "result": 4500, "unit": "ng/mL"}, {"measurement": "concentration", "setting": "[1]; 30 min", "result": 3200, "unit": "ng/mL"}, {"measurement": "concentration", "setting": "[1]; 60 min", "result": 2500, "unit": "ng/mL"}, {"measurement": "concentration", "setting": "[2]; 1 min", "result": 6300, "unit": "ng/mL"}, {"measurement": "concentration", "setting": "[2]; 3 min", "result": 6000, "unit": "ng/mL"}, {"measurement": "concentration", "setting": "[2]; 5 min", "result": 5300, "unit": "ng/mL"}, {"measurement": "concentration", "setting": "[2]; 10 min", "result": 4800, "unit": "ng/mL"}, {"measurement": "concentration", "setting": "[2]; 15 min", "result": 4000, "unit": "ng/mL"}, {"measurement": "concentration", "setting": "[2]; 30 min", "result": 3800, "unit": "ng/mL"}, {"measurement": "concentration", "setting": "[2]; 60 min", "result": 3500, "unit": "ng/mL"}]}]}
